{"source": "patent US11466023B2", "about": "“Combination of a Mcl-1 inhibitor and a standard of care treatment for hematologic cancers, uses and pharmaceutical compositions thereof” (LES LABORATOIRES SERVIER, priority 2017, dated 2022)", "key": {"[1]": {"tested_on": "EOL-1 AML cell line", "assay": "Single agent cell viability (CellTiterGlo)", "type": "cell-based", "settings": "Homo sapiens, EOL1, 72 h; EOL-1, single agent, 3 days incubation, CellTiterGlo; read-out: IC50", "procedure": "(§1) Cell lines were cultured at 37° C. in a humidified atmosphere containing 5% CO2 and expanded in T-150 flasks. […] In order to analyse the activity of the compounds as single agents, cells were seeded and treated with nine 2-fold serial dilutions of each compound dispensed individually directly into the cell assay plates. […] All the experiments were performed in triplicates. Luminescence was quantified on a multipurpose plate reader. Single agent IC50s were calculated using standard four-parametric curve fitting."}, "[2]": {"tested_on": "GDM-1 AML cell line", "assay": "Single agent cell viability (CellTiterGlo)", "type": "cell-based", "settings": "Homo sapiens, 72 h; GDM-1, single agent, 3 days incubation, CellTiterGlo; read-out: IC50", "procedure": "as §1"}, "[3]": {"tested_on": "HL-60 AML cell line", "assay": "Single agent cell viability (CellTiterGlo)", "type": "cell-based", "settings": "Homo sapiens, 72 h; HL-60, single agent, 3 days incubation, CellTiterGlo; read-out: IC50", "procedure": "as §1"}, "[4]": {"tested_on": "KG1 AML cell line", "assay": "Single agent cell viability (CellTiterGlo)", "type": "cell-based", "settings": "72 h; KG1, single agent, 3 days incubation, CellTiterGlo; read-out: IC50", "procedure": "as §1"}, "[5]": {"tested_on": "KG1a AML cell line", "assay": "Single agent cell viability (CellTiterGlo)", "type": "cell-based", "settings": "Homo sapiens, KG-1a, 72 h; KG1a, single agent, 3 days incubation, CellTiterGlo; read-out: IC50", "procedure": "as §1"}, "[6]": {"tested_on": "Kasumi-1 AML cell line", "assay": "Single agent cell viability (CellTiterGlo)", "type": "cell-based", "settings": "Homo sapiens, 72 h; Kasumi-1, single agent, 3 days incubation, CellTiterGlo; read-out: IC50", "procedure": "as §1"}, "[7]": {"tested_on": "ML-2 AML cell line", "assay": "Single agent cell viability (CellTiterGlo)", "type": "cell-based", "settings": "72 h; ML-2, single agent, 3 days incubation, CellTiterGlo; read-out: IC50", "procedure": "as §1"}, "[8]": {"tested_on": "MOLM-13 AML cell line", "assay": "Single agent cell viability (CellTiterGlo)", "type": "cell-based", "settings": "Homo sapiens, 72 h; MOLM-13, single agent, 3 days incubation, CellTiterGlo; read-out: IC50", "procedure": "as §1"}, "[9]": {"tested_on": "MV4; 11 AML cell line", "assay": "Single agent cell viability (CellTiterGlo)", "type": "cell-based", "settings": "Homo sapiens, 72 h; MV4; 11, single agent, 3 days incubation, CellTiterGlo; read-out: IC50", "procedure": "as §1"}, "[10]": {"tested_on": "Nomo-1 AML cell line", "assay": "Single agent cell viability (CellTiterGlo)", "type": "cell-based", "settings": "Homo sapiens, 72 h; Nomo-1, single agent, 3 days incubation, CellTiterGlo; read-out: IC50", "procedure": "as §1"}, "[11]": {"tested_on": "OCI-AML3 AML cell line", "assay": "Single agent cell viability (CellTiterGlo)", "type": "cell-based", "settings": "Homo sapiens, OCI-AML-3, 72 h; OCI-AML3, single agent, 3 days incubation, CellTiterGlo; read-out: IC50", "procedure": "as §1"}, "[12]": {"tested_on": "PL-21 AML cell line", "assay": "Single agent cell viability (CellTiterGlo)", "type": "cell-based", "settings": "72 h; PL-21, single agent, 3 days incubation, CellTiterGlo; read-out: IC50", "procedure": "as §1"}, "[13]": {"tested_on": "THP-1 AML cell line", "assay": "Single agent cell viability (CellTiterGlo)", "type": "cell-based", "settings": "Homo sapiens, 72 h; THP-1, single agent, 3 days incubation, CellTiterGlo; read-out: IC50", "procedure": "as §1"}, "[14]": {"tested_on": "mononuclear cells from ALL patient samples", "assay": "Cell viability assay (sytox blue flow cytometry) in primary ALL samples", "type": "cell-based", "settings": "Homo sapiens, 48 h, combination at 1:1 ratio, read-out: 50% lethal concentration (LC50)", "procedure": "Bone marrow or peripheral blood samples from patients with ALL were collected after informed consent in accordance with guidelines approved by The Alfred Hospital Human research ethics committee. Mononuclear cells were isolated by Ficoll-Paque (GE Healthcare, Australia) density-gradient centrifugation, followed by red cell depletion in ammonium chloride (NH4Cl) lysis buffer at 37° C. for 10 minutes. Cells were then re-suspended in phosphate-buffered saline containing 2% Fetal Bovine serum (Sigma, Australia). Mononuclear cells were then suspended in RPMI-1640 (GIBCO, Australia) medium containing penicillin and streptomycin (GIBCO) and heat inactivated fetal bovine serum 15% (Sigma).\nFreshly purified mononuclear cells from ALL patient samples were adjusted to a concentration of 2.5×10^5/ml and 100 μL of cells aliquoted per well into 96 well plates (Sigma). Cells were then treated with indicated drugs over a […] concentration range from 1 nM to 10 μM for 48 hours. For combinations assays, drugs were added at a 1:1 ratio from 1 nM to 10 μM and incubated at 37° C. 5% CO2. Cells were then stained with sytox blue nucleic acid stain (Invitrogen, Australia) and fluorescence measured by flow cytometric analysis using the LSR-II Fortessa (Becton Dickinson, Australia). FACSDiva software was used for data collection, and FlowJo software for analysis. Blast cells were gated using forward and side scatter properties. Viable cells excluding sytox blue were determined at 6 concentrations for each drug and the 50% lethal concentration (LC50, in μM) determined."}, "[15]": {"tested_on": "primary AML samples", "settings": "primary AML samples (leukemic progenitor cells), 10 nM"}, "[16]": {"tested_on": "normal human CD34+ progenitor cells", "settings": "10 nM"}}, "note": "Read-outs that look alike come from different tables or passages of the source."}
{"smiles": "Nc1ccn([C@@H]2O[C@H](CO)[C@@H](O)[C@@H]2O)c(=O)n1", "note": "[Cytarabine, cytarabine]", "values": [{"measurement": "IC50", "setting": "[1]", "result": 90, "unit": "nM"}, {"measurement": "IC50", "setting": "[2]", "result": 30, "unit": "nM"}, {"measurement": "IC50", "setting": "[3]", "result": 740, "unit": "nM"}, {"measurement": "IC50", "setting": "[4]", "result": 170, "unit": "nM"}, {"measurement": "IC50", "setting": "[5]", "result": 240, "unit": "nM"}, {"measurement": "IC50", "setting": "[6]", "result": 1020, "unit": "nM"}, {"measurement": "IC50", "setting": "[7]", "result": 30, "unit": "nM"}, {"measurement": "IC50", "setting": "[8]", "result": 190, "unit": "nM"}, {"measurement": "IC50", "setting": "[9]", "result": 140, "unit": "nM"}, {"measurement": "IC50", "setting": "[10]", "result": 990, "unit": "nM"}, {"measurement": "IC50", "setting": "[11]", "result": "> 2000", "unit": "nM"}, {"measurement": "IC50", "setting": "[12]", "result": 100, "unit": "nM"}, {"measurement": "IC50", "setting": "[13]", "result": "> 2000", "unit": "nM"}, {"measurement": "CC50", "setting": "[14]; ALL patient sample 01-046-2018, 48 hours", "result": "> 100000", "unit": "nM"}, {"measurement": "CC50", "setting": "[14]; ALL patient sample AH6031524, 48 hours", "result": 51600, "unit": "nM"}, {"measurement": "CC50", "setting": "[14]; ALL patient sample AH6184311, 48 hours", "result": 88000, "unit": "nM"}, {"measurement": "CC50", "setting": "[14]; ALL patient sample AH6196680, 48 hours", "result": "> 100000", "unit": "nM"}, {"measurement": "CC50", "setting": "[14]; ALL patient sample AH6198549, 48 hours", "result": 10600, "unit": "nM"}, {"measurement": "CC50", "setting": "[14]; ALL patient sample AH6258921, 48 hours", "result": "> 100000", "unit": "nM"}, {"measurement": "CC50", "setting": "[14]; ALL patient sample AH7008157, 48 hours", "result": "> 100000", "unit": "nM"}, {"measurement": "CC50", "setting": "[14]; ALL patient sample AH7024700, 48 hours", "result": 35900, "unit": "nM"}, {"measurement": "CC50", "setting": "[14]; ALL patient sample AH7104727, 48 hours", "result": "> 100000", "unit": "nM"}, {"measurement": "CC50", "setting": "[14]; ALL patient sample TB 10-05-02, 48 hours", "result": "> 100000", "unit": "nM"}, {"measurement": "CC50", "setting": "[14]; ALL patient sample TB 11-08-06, 48 hours", "result": "> 100000", "unit": "nM"}, {"measurement": "CC50", "setting": "[14]; ALL patient sample TB 15-06-05, 48 hours", "result": "> 100000", "unit": "nM"}, {"measurement": "CC50", "setting": "[14]; ALL patient sample TB 17-06-18, 48 hours", "result": "> 100000", "unit": "nM"}, {"measurement": "CC50", "setting": "[14]; ALL patient sample TB120803, 48 hours", "result": "> 100000", "unit": "nM"}, {"measurement": "CC50", "setting": "[14]; ALL patient sample TB151005, 48 hours", "result": "> 100000", "unit": "nM"}, {"measurement": "clonogenic growth", "setting": "[15]", "result": "toxic"}, {"measurement": "clonogenic growth", "setting": "[16]", "result": "toxic"}]}
